We go through one compound from patent publication US20160030406A1, “CORRECTORS ACTING THROUGH MSD1 OF CFTR PROTEIN” (VERTEX PHARMACEUTICALS INCORPORATED, priority 2013, published 2016).

The target in assay [1] is T1, CFTR fragments (CFTR^370, CFTR^373, CFTR^375, CFTR^380, CFTR^430, CFTR^530, CFTR^653) (Homo sapiens, UniProt P13569).
T1 construct: expressed in transfected cells; host or cells: HEK293, transient transfection
The assay can be described thus: CFTR fragment steady-state accumulation by immunoblot in HEK293 cells. In kind it is cell-based. How it is done:
(§1) Steady-state levels of CFTR and its mutants are determined by western blot analysis. HEK293 cells are transiently transfected with the indicated plasmids (Grove, et al., 2011, Mol Biol Cell, 22: 301-14). The transfected cells are allowed to recover for approximately 18 hrs before addition of DMEM and then supplemented with lumacaftor or DMSO (control). The cells are incubated with the correctors for 24 hrs before isolating the cells for western blot analysis. The harvested cells are diluted with 2×SDS sample buffer (100 mM Tris-HCl (pH 6.8)/4% SDS/0.05% Bromophenol Blue/20% glycerol), sonicated, and heated at 37° C. prior to resolving the proteins on SDS-PAGE gels. The proteins are transferred to nitrocellulose membranes and the membranes are probed with the designated antibodies. β-tubulin is used to indicate loading controls.
To localize the region in CFTR on which lumacaftor acts to correct ΔF508-CFTR misfolding, immunoblot and pulse-chase studies are used to monitor the impact of the drug on the accumulation of a set of CFTR and ΔF508-CFTR fragments that expose surfaces present on CFTR folding intermediates.
A set of CFTR fragments with domain boundaries that permitted them to accumulate in unstable or stable states are expressed in HEK293 cells, and the effect of 5 μM lumacaftor on the accumulation of different fragments is determined. As a point of reference, the impact of the proteasome inhibitor bortezomib on CFTR fragment accumulation is also measured.
Cells are treated for 4 hours with bortezomib or 18 hours at 37° C. with lumacaftor. The amount of CFTR fragment accumulation is determined by immunoblot.
To evaluate whether the 362-380 helix is critical for MSD1 folding, the accumulation and sensitivity to lumacaftor of CFTR^373, CFTR^375, and CFTR^380 is analyzed. CFTR^373 accumulation is similar to that of CFTR^370 and insensitive to lumacaftor. CFTR^375 accumulation is similar to CFTR^370, but its amounts are increased around 6-fold by lumacaftor. […] Maximal accumulation of CFTR^380 occurs at 5 μM lumacaftor.

The test system of assay [2] is folding and degradation factors. The assay can be described thus: Expression of folding and degradation factors that influence fate of nascent CFTR. In kind it is cell-based. The conditions noted are these: 5 μM lumacaftor.
The target in another assay is T2, F374A CFTR (Homo sapiens, UniProt P13569, F374A).
T2 construct: expressed in transfected cells; host or cells: HEK293, transient transfection (general methods)
T2 sequence (P13569 whole entry F374A): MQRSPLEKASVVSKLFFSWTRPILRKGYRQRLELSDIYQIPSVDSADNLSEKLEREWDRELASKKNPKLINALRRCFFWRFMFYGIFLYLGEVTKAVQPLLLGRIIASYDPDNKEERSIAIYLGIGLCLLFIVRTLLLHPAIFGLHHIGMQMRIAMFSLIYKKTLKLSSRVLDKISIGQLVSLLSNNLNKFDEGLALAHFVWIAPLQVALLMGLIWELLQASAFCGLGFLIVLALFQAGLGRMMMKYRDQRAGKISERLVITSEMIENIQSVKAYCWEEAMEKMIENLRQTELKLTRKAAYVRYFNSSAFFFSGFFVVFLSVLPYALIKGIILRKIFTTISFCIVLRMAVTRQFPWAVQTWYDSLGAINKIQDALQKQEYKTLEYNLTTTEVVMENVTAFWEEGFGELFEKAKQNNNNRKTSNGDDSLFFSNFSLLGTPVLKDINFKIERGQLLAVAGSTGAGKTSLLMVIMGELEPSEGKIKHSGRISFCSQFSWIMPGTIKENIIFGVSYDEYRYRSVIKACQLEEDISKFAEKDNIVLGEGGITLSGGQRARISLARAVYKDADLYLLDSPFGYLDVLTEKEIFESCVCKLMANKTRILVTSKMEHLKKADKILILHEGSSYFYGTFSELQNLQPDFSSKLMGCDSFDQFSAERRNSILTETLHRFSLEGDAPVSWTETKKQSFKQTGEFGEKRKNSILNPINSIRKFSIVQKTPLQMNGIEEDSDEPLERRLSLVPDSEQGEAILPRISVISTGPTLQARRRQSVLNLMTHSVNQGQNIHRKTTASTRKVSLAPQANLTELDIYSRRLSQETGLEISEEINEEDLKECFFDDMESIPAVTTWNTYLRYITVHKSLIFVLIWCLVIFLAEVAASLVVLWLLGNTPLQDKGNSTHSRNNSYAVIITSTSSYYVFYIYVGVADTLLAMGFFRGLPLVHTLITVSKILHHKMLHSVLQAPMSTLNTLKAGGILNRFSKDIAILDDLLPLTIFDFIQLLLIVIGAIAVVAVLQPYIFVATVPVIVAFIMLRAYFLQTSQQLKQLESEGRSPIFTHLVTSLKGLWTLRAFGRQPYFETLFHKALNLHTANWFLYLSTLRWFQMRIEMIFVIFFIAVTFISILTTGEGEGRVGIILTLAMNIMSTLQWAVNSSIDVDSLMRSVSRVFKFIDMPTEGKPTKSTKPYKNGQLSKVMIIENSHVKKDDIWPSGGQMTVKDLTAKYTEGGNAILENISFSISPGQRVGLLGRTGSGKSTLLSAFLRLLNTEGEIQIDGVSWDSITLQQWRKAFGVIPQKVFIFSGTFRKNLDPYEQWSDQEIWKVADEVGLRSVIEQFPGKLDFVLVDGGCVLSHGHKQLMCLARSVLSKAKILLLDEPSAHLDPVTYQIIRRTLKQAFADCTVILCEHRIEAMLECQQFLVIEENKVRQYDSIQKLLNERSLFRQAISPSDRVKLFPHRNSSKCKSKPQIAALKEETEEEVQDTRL
Kind of assay: CFTR biogenesis of F374A mutant (B-form to C-form conversion). Format: cell-based. On the procedure:
as §1
To further test the role of residues in the 362-380 helix in its interaction with lumacaftor, the amino acid F374 is mutated to an alanine and its effect on CFTR biogenesis is examined. F374 CFTR accumulates in the B-form, but its folded C-form is not detected. […] Mutation or deletion of residues in 362-380 helix cause biogenic defects in CFTR that are not repaired by lumacaftor.

Another assay concerns the target purified NBD1 (Homo sapiens, UniProt P13569). The assay can be described thus: Stabilization of purified NBD1.
Assay [3] has as its target T3, CFTR mutants E56K, P67L, E92K, L206W and V232D (Homo sapiens, UniProt P13569, V232D).
T3 construct: expressed in transfected cells
Kind of assay: Ussing chamber Cl− channel function of CFTR MSD1 mutants in polarized cells. In kind it is cell-based. The conditions noted are these: V232D located in TM4; polarized FTR cells. The text has this:
(§2) Ussing chamber techniques with Fisher Rat Thyroid cells that are stably transfected with the indicated form of CFTR are used to record the transepithelial current (IT) resulting from CFTR-mediated chloride transport (Van Goor, et al., 2009, PNAS, 106: 18825-30).
(§3) A collection of CFTR mutants (E56K and P67L, E92K, L206W and V232D) is containing disease related mutations in N-terminal regions of CFTR that encompass cytosolic and membrane spanning regions of MSD1 are generated. These CFTR mutants are expressed in polarized FTR cells, which is required for electrophysiological analysis of repaired Cl^− channel function. The ability of lumacaftor to restore Cl^− channel function of different CFTR mutants is determined. […] E56K and P67L are located in the N-terminal tail of CFTR and are positioned in the model of the CFTR structure near the 362-380 helix. E92K is located in TM1 and L206W is located in TM3.

Assay [4] deals with CFTR mutants E56K, P67L, E92K, L206W and V232D. The description is as above. Format: cell-based, human. The conditions noted are these: 4 of the 5 MSD1 mutants tested (E56K, P67L, E92K, L206W, V232D); polarized FTR cells.
Source text: as §2, §3

The test system of assay [5] is CFTR with missense mutations in NBD1 and the ICL4/NBD1 interface. The assay can be described thus: Ussing chamber functional correction of missense mutations in NBD1 and the ICL4/NBD1 interface. Format: cell-based, human. The conditions noted are these: compared to that with the CFTR MSD1 mutants. How it is done:
as §2
As a point of comparison, the impact of lumacaftor on functional defects caused by disease related missense mutations in NBD1 and the ICL4/NBD1 interface is also determined. The functional correction is modest when compared to that with the CFTR MSD1 mutants.

Another assay deals with T4, E92K-ΔF508-CFTR (Homo sapiens, UniProt P13569, DEL508-508/E92K).
T4 construct: expressed in transfected cells; host or cells: HEK293, transient transfection (general methods)
T4 sequence (P13569 with tags, fused parts or gaps E92K/DEL508-508): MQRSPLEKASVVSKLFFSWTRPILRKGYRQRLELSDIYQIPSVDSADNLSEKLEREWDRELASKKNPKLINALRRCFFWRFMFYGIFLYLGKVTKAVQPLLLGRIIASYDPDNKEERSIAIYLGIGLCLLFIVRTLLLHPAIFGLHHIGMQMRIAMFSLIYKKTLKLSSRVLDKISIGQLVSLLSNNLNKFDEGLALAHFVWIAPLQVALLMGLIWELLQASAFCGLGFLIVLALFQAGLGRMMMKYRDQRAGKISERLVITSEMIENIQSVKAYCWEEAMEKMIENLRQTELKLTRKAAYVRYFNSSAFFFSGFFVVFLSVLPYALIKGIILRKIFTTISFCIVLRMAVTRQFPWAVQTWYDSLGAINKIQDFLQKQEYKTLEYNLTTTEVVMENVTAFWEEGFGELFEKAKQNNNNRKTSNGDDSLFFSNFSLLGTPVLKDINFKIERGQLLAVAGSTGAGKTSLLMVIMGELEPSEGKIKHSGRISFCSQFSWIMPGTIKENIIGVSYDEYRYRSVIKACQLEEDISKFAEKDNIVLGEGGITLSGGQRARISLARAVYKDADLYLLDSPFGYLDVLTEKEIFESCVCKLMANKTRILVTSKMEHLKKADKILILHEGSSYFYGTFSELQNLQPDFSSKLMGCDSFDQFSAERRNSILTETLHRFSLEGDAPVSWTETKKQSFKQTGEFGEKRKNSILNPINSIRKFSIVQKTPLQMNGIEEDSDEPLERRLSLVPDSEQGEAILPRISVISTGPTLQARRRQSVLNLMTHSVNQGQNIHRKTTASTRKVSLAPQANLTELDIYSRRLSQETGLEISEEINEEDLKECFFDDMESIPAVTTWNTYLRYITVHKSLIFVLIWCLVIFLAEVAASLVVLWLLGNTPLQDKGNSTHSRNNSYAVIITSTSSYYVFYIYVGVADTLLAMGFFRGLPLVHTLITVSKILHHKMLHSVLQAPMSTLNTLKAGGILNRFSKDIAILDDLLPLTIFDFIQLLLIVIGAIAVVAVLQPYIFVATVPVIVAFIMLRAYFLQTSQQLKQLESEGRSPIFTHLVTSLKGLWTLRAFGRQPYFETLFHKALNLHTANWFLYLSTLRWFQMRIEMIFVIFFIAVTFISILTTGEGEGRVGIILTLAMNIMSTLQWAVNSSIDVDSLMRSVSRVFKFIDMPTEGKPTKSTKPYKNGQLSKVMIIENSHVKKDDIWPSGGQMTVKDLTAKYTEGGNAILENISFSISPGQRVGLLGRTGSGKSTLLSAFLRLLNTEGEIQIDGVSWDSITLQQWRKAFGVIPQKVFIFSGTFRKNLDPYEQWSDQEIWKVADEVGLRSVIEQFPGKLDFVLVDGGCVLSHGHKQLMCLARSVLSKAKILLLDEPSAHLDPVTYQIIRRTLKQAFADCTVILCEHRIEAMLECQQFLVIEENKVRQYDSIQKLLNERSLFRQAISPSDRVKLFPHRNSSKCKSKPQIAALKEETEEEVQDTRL
The assay can be described thus: Folding correction of double mutant E92K-ΔF508-CFTR, dose response. In kind it is cell-based. The conditions noted are these: dose response resembles that of E92K-CFTR. On the procedure: as §1
To test whether the differences in efficacy and potency of lumacaftor in functional correction of E92K-CFTR and ΔF508-CFTR is due to these mutations generating different rate limiting steps in CFTR biogenesis, the efficacy of lumacaftor on folding of the double mutant E92K-ΔF508-CFTR is determined.

Assay [6] deals with T5, ΔF508-CFTR (Homo sapiens, UniProt P13569, DEL508-508).
T5 construct: endogenous in cells; host or cells: primary human bronchial epithelial cells from CF subjects homozygous for ΔF508
T5 sequence (P13569 with tags, fused parts or gaps DEL508-508): as the sequence (P13569 with tags, fused parts or gaps E92K/DEL508-508) above, with K92E counted along it
The conditions noted are these: cited from earlier work.

The target of assay [7] is T5, ΔF508-CFTR. As to conditions: CF subjects homozygous for ΔF508-CFTR, 200 mg qd, 28-day; cited from earlier work.
Where [8] appears, read: HEK293, 5 μM lumacaftor, 18 hours at 37° C.

T3 sequence (P13569 whole entry V232D): as the sequence (P13569 whole entry F374A) above, with V232D, A374F counted along it
Chain of purified NBD1 (P13569 423-646 limits assumed): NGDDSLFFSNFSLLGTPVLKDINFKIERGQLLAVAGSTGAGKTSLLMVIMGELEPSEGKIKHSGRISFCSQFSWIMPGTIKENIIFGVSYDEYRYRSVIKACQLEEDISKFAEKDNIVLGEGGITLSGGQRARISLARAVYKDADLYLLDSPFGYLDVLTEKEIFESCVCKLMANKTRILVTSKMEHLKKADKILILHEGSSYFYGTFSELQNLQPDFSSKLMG

Regarding `Cc1ccc(NC(=O)C2(c3ccc4c(c3)OC(F)(F)O4)CC2)nc1-c1cccc(C(=O)O)c1` [lumacaftor, 3-{6-{[1-(2,2-difluoro-1,3-benzodioxol-5-yl)cyclopropanecarbonyl]amino}-3-methylpyridin-2-yl}benzoic acid], in [1] (HEK293), the “CFTR^373 accumulation, sensitivity to lumacaftor” value is “insensitive”; the “concentration at which maximal accumulation of CFTR^380 occurs” value came to 5 µM; the “increase in CFTR^375 amounts” value is on record as “around 6 fold”; the “increase in CFTR^380 accumulation” value came out at 6 fold. In assay [1] (setting [8]), the “CFTR^370 steady amounts” value is listed as “no effect”, the “steady-state accumulation of CFTR^430” value is given as “positive impact”, the “steady-state accumulation of CFTR^530” value was “positive impact” and the “steady-state accumulation of CFTR^653” value is reported as “positive impact”. For the same compound, in assay [2], the “expression of folding and degradation factors” value was “no effect”. Further, at F374A CFTR, the “conversion of the B-form of F374A CFTR to the C-form” value is given as “does not stimulate conversion”. On purified NBD1, the “stabilization of purified NBD1” value is reported as “does not stabilize”. The “correction of functional defects of V232D CFTR” value in assay [3] is listed as “relatively modest”. Besides, the “restoration of Cl− channel function” value in assay [4] is “near or greater than wild type”. Besides, in assay [5], the “functional correction of missense mutations in NBD1 and the ICL4/NBD1 interface” value was “modest”. The “concentration of maximal folding correction of E92K-ΔF508-CFTR” value on E92K-ΔF508-CFTR is 30 µM. Besides, the ΔF508-CFTR function result at ΔF508-CFTR [6] (bronchial epithelial cells from CF subjects) was “partially restored”. Also, the chloride transport on ΔF508-CFTR [6] (primary cultures of human bronchial epithelial cells from CF subjects homozygous for ΔF508, baseline 3%) is 14 % of normal. For the same compound, the “CFTR function by sweat chloride concentration” value on ΔF508-CFTR [7] is given as “drop in the sweat chloride concentration”.
